The numbers were not newly measured in US5879680A, “Cloned DNA for synthesizing unique glucocerebrosidase” (The United States of America as represented by the …, priority 1995, dated 1999), which cites them from elsewhere.

This series has as its target human placental glucocerebrosidase (Homo sapiens, UniProt P04062). Conditions: placental enzyme, reported by Basu et al, J.B.C. 259:1714, 1984.

Chain of human placental glucocerebrosidase (P04062 40-536): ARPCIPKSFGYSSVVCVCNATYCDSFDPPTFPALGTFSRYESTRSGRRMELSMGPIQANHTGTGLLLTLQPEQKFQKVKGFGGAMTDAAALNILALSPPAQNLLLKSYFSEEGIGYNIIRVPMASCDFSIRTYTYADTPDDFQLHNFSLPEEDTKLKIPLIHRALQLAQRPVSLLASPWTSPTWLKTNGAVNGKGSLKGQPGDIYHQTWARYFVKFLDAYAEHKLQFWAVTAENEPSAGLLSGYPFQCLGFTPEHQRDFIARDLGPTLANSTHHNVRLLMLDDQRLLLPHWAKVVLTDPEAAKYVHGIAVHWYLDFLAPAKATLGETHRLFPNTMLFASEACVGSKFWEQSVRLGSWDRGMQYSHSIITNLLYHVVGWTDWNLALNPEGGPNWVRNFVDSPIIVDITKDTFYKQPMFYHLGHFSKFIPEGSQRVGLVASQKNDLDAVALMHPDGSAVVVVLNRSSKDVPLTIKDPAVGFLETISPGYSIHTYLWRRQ

On to `Cc1cc(=O)oc2cc(O[C@@H]3O[C@H](CO)[C@@H](O)[C@H](O)[C@H]3O)ccc12` [4MUGP, 4-methylumbellifery-β-D-glucopyranoside], for which the Km is 8 mM.
